Data as given in patent US9757477B2, “Imaging brown adipose tissue with curcumin derivatives” (The General Hospital Corporation, priority 2013, dated 2017).
Several values for one entry are separate records, joined by “and”; a condition that tells them apart may be missing. Equal entries are not always repeated.

Columns and labels:
interscapular BAT [1] = assay: Top-down whole-organism NIR fluorescence screening of dyes (ROI1/ROI2 contrast); format: in vivo, nude mice; conditions: for Ratio No 1 (ROI1/ROI2 average fluorescence intensity) / Ratio No 2 (ROI1/ROI2 average fluorescence intensity) / Ratio No 3 (ROI1/ROI2 average fluorescence intensity) / Ratio AVERAGE (mean ratio ROI1/ROI2): nude mice, one hour post-injection; for Ratio No 1 (ROI1/ROI2 average fluorescence intensity) / Ratio No 2 (ROI1/ROI2 average fluorescence intensity) / Ratio No 3 (ROI1/ROI2 average fluorescence intensity): 10 μg/mouse i.v.; for Ratio No 1 (ROI1/ROI2 average fluorescence intensity): first excitation/emission filter pair; for Ratio No 2 (ROI1/ROI2 average fluorescence intensity): second excitation/emission filter pair; for Ratio No 3 (ROI1/ROI2 average fluorescence intensity): third excitation/emission filter pair; for Ratio AVERAGE (mean ratio ROI1/ROI2): i.v., mean of three filter pairs, hit threshold >1.10; for visible contrast around the interscapular BAT area: in vivo NIR images
Experimental: 38 fluorescent dyes from commercial resources and from the inventors' laboratory were screened. Dyes with excitation range of 550-745 nm, emission range of 600-840 nm, and with molecular weight of less than 700 Da (except Cy5.5) (representative dyes are listed in FIG. 1d and the full list is shown in Table 2). Their hydrophobicities were not determined. The library was screened by intravenous tail injection of compounds into nude mice (10μg/mouse). Each dye was imaged with three optimized excitation/emission filter-pairs, and images at one hour after i.v. injection were acquired.
Top-down whole organism screening was performed as follows. Nude mice (nu/nu COX7) were purchased from Massachusetts General Hospital and Balb/c mice were from Jackson Laboratory. All animal experimental procedures were approved by the Institutional Animal Care and Use Committee (IACUC) at Massachusetts General Hospital. Dye stock solutions were prepared in DMSO. The final injection solution (0.1 mg/ml) was freshly prepared in a mixed solution of 20% DMSO, 20% Cremophor EL and 60% saline. Nude mice (n=5) were injected with a 100 μL dye solution via tail vein. For each imaging session, mice were anesthetized with a mixture of oxygen and isoflurane for 5 minutes, and then positioned into the imaging chamber of IVIS® Spectrum in vivo pre-clinical imaging system. Images were acquired at one-hour post-injection using sequence imaging with three excitation/emission filter pairs for each dye.
Hits selection was performed as follows. Hits from cell- or protein-based screening are usually selected by setting certain threshold. In the case of the top-down imaging screening, two methods were used (threshold and visible contrast) to select hits. First, three images obtained with three excitation/emission pairs were selected for each dye. These ex/em pairs were selected from the closest excitation and emission wavelengths of the tested dyes. For instance, 605/660 nm, 605/680 nm, 640/680 nm were selected for image acquisition of Nile blue (625/660 nm). The quantification of contrast for each image was calculated as a ratio of two ROIs (region of interest). ROI1 reflected the average signal from interscapular BAT and ROI2 was the average signal of the area that included BAT and white adipose tissue (WAT) around the interscapular site (FIG. 1b, left). The averaged fluorescent signal of ROI was used instead of the total signal, because the total signal depends on the area of ROI, whereas the averaged signal reflects the density of signal. The ratio of ROI1/ROI2 could reflect the signal/noise ratio of the tested probe, and could also reflect the selectivity of the probe for BAT over WAT. For each dye, three ROI1/ROI2 ratios obtained with the three filter pairs were calculated. The mean of the ratios was used as the threshold. If the mean ratio was >1.10, the dye was selected as a potential positive hit (FIG. 1c). Since the contrast of a dye in the top-down screening is in the visible range, the visible contrast around the interscapular BAT area was also tested for the hits with the mean ratio of >1.10. If both mean ratio and the visible contrast were positive, then the hit was subjected to re-testing procedure to validate its reliability as described below.
Although CRANAD-2 and CRANAD-3 were able to provide certain contrast for BAT in vivo, their excitation and emission wavelengths were still shorter than required for an ideal NIR imaging probe (both excitation and emission >640 nm). […] To seek better probes, a sub-library was synthesized based on the structures of the lead probes CRANAD-2 and -3. CRANAD-6, -19, -22, -24, -26, -32 and -43 were synthesized and tested (images and chemical structures, excitation and emission spectra are shown in FIG. 9 a-e). […] However, the ROI1/ROI2 ratio of CRANAD-22 was not improved (FIG. 9c).

interscapular BAT [2] = assay: Re-testing of hits with stepwise dissection and NIR imaging; format: in vivo, mice; conditions: stepwise dissection
Experimental: Like protein/cell-based screening, hit re-testing experiments were conducted to validate the reliability of this approach. CRANAD-2, -3, LDS 722 and Rhodamine 640 were subjected to re-testing by repeating the above imaging procedure. Images were acquired one hour after probe injection.
Next, stepwise dissection and imaging were performed to track the source of the fluorescence contrast at the interscapular site. Skin and the thin WAT layer that covers BAT were first removed, and then BAT was dissected, and NIR images were captured at each step. […] The signal contribution from BAT (R(BAT)) was roughly estimated using the ratio of fluorescence signals acquired after (F(BAT)) and before (F(intact)) the first step dissection of skin and WAT.

Molecule: CC[n+]1ccccc1/C=C/C=C/c1ccc(N(C)C)cc1.[O-][Cl+3]([O-])([O-])[O-] [LDS698]
- Ratio No 1 (ROI1/ROI2 average fluorescence intensity) (interscapular BAT [1]): 1.03E+00
- Ratio No 2 (ROI1/ROI2 average fluorescence intensity) (interscapular BAT [1]): 1.06E+00
- Ratio No 3 (ROI1/ROI2 average fluorescence intensity) (interscapular BAT [1]): 1.04E+00
- Ratio AVERAGE (mean ratio ROI1/ROI2) (interscapular BAT [1]): 1.04E+00

Molecule: CC[n+]1ccc(C=CC=Cc2ccc(N(C)C)cc2)cc1.[O-][Cl+3]([O-])([O-])[O-] [LDS722]
- visible contrast around the interscapular BAT area (interscapular BAT [1]): weak contrast and no clear triangular contours
- Ratio No 1 (ROI1/ROI2 average fluorescence intensity) (interscapular BAT [1]): 1.15E+00
- Ratio No 2 (ROI1/ROI2 average fluorescence intensity) (interscapular BAT [1]): 1.14E+00
- Ratio No 3 (ROI1/ROI2 average fluorescence intensity) (interscapular BAT [1]): 1.08E+00
- Ratio AVERAGE (mean ratio ROI1/ROI2) (interscapular BAT [1]): 1.13 and 1.13E+00
- fluorescence signal from BAT (before vs after BAT removal) (interscapular BAT [2]): no significant fluorescent signal was from BAT

Molecule: CN(C)c1ccc(/C=C/C=C/C2=[N+](C)c3ccccc3C2(C)C)cc1.[O-][Cl+3]([O-])([O-])[O-] [LDS730]
- Ratio No 1 (ROI1/ROI2 average fluorescence intensity) (interscapular BAT [1]): 1.03E+00
- Ratio No 2 (ROI1/ROI2 average fluorescence intensity) (interscapular BAT [1]): 1.08E+00
- Ratio No 3 (ROI1/ROI2 average fluorescence intensity) (interscapular BAT [1]): 1.09E+00
- Ratio AVERAGE (mean ratio ROI1/ROI2) (interscapular BAT [1]): 1.07E+00

Molecule: CC[n+]1c(/C=C/C=C/c2ccc(N(C)C)cc2)ccc2cc(N(C)C)ccc21.[O-][Cl+3]([O-])([O-])[O-] [LDS751]
- Ratio No 1 (ROI1/ROI2 average fluorescence intensity) (interscapular BAT [1]): 1.07E+00
- Ratio No 2 (ROI1/ROI2 average fluorescence intensity) (interscapular BAT [1]): 1.05E+00
- Ratio No 3 (ROI1/ROI2 average fluorescence intensity) (interscapular BAT [1]): 1.11E+00
- Ratio AVERAGE (mean ratio ROI1/ROI2) (interscapular BAT [1]): 1.08E+00

Molecule: CC[n+]1ccc(/C=C/C=C/c2ccc(N(C)C)cc2)c2ccccc21.[O-][Cl+3]([O-])([O-])[O-] [LDS798]
- Ratio No 1 (ROI1/ROI2 average fluorescence intensity) (interscapular BAT [1]): 1.00E+00
- Ratio No 2 (ROI1/ROI2 average fluorescence intensity) (interscapular BAT [1]): 1.00E+00
- Ratio No 3 (ROI1/ROI2 average fluorescence intensity) (interscapular BAT [1]): 9.88E−01
- Ratio AVERAGE (mean ratio ROI1/ROI2) (interscapular BAT [1]): 9.98E−01

Molecule: CCN=c1cc2oc3c4c5c(cc3nc-2c2ccccc12)CCCN5CCC4 [OX750]
- Ratio No 1 (ROI1/ROI2 average fluorescence intensity) (interscapular BAT [1]): 1.09E+00
- Ratio No 2 (ROI1/ROI2 average fluorescence intensity) (interscapular BAT [1]): 1.09E+00
- Ratio No 3 (ROI1/ROI2 average fluorescence intensity) (interscapular BAT [1]): 1.04E+00
- Ratio AVERAGE (mean ratio ROI1/ROI2) (interscapular BAT [1]): 1.07E+00

Molecule: CC1=C(C)C(C)=[N+]2C1=C(C#N)c1c(C)c(C)c(C)n1[B-]2(F)F [Pyromethene650]
- Ratio No 1 (ROI1/ROI2 average fluorescence intensity) (interscapular BAT [1]): 1.09E+00
- Ratio No 2 (ROI1/ROI2 average fluorescence intensity) (interscapular BAT [1]): 1.07E+00
- Ratio No 3 (ROI1/ROI2 average fluorescence intensity) (interscapular BAT [1]): 1.08E+00
- Ratio AVERAGE (mean ratio ROI1/ROI2) (interscapular BAT [1]): 1.08E+00

Molecule: O=C(O)c1ccccc1C1=c2cc3c4c(c2Oc2c1cc1c5c2CCCN5CCC1)CCC[N+]=4CCC3.[Cl-] [Rhodamine640]
- visible contrast around the interscapular BAT area (interscapular BAT [1]): weak contrast and no clear triangular contours
- Ratio No 1 (ROI1/ROI2 average fluorescence intensity) (interscapular BAT [1]): 1.15E+00
- Ratio No 2 (ROI1/ROI2 average fluorescence intensity) (interscapular BAT [1]): 1.15E+00
- Ratio No 3 (ROI1/ROI2 average fluorescence intensity) (interscapular BAT [1]): 1.15E+00
- Ratio AVERAGE (mean ratio ROI1/ROI2) (interscapular BAT [1]): 1.15 and 1.15E+00
- fluorescence signal from BAT (before vs after BAT removal) (interscapular BAT [2]): no significant signals were from BAT

Molecule: CCN(CC)c1ccc2c(-c3ccccc3C(C)=O)c3ccc(=[N+](CC)CC)cc-3oc2c1 [RhodamineB]
- Ratio No 1 (ROI1/ROI2 average fluorescence intensity) (interscapular BAT [1]): 1.01E+00
- Ratio No 2 (ROI1/ROI2 average fluorescence intensity) (interscapular BAT [1]): 1.01E+00
- Ratio No 3 (ROI1/ROI2 average fluorescence intensity) (interscapular BAT [1]): 9.54E−01
- Ratio AVERAGE (mean ratio ROI1/ROI2) (interscapular BAT [1]): 9.90E−01

Molecule: Cy5.5
- Ratio No 1 (ROI1/ROI2 average fluorescence intensity) (interscapular BAT [1]): 1.07E+00
- Ratio No 2 (ROI1/ROI2 average fluorescence intensity) (interscapular BAT [1]): 1.07E+00
- Ratio No 3 (ROI1/ROI2 average fluorescence intensity) (interscapular BAT [1]): 1.06E+00
- Ratio AVERAGE (mean ratio ROI1/ROI2) (interscapular BAT [1]): 1.07E+00

Molecule: Sulforhodamine
- Ratio No 1 (ROI1/ROI2 average fluorescence intensity) (interscapular BAT [1]): 8.51E−01
- Ratio No 2 (ROI1/ROI2 average fluorescence intensity) (interscapular BAT [1]): 8.86E−01
- Ratio No 3 (ROI1/ROI2 average fluorescence intensity) (interscapular BAT [1]): 9.21E−01
- Ratio AVERAGE (mean ratio ROI1/ROI2) (interscapular BAT [1]): 8.86E−01
